These results are taken from US11198713B2, “Agents modulating beta-catenin functions and methods thereof” (FOG PHARMACEUTICALS, INC., priority 2017, dated 2021).

This assay has as its target T1, full-length beta-catenin (Axin site) (Homo sapiens, UniProt P35222).
T1 construct: 15 nM full-length beta-catenin, 20 nM FITC labeled peptide in buffer
T1 sequence (P35222 1-781): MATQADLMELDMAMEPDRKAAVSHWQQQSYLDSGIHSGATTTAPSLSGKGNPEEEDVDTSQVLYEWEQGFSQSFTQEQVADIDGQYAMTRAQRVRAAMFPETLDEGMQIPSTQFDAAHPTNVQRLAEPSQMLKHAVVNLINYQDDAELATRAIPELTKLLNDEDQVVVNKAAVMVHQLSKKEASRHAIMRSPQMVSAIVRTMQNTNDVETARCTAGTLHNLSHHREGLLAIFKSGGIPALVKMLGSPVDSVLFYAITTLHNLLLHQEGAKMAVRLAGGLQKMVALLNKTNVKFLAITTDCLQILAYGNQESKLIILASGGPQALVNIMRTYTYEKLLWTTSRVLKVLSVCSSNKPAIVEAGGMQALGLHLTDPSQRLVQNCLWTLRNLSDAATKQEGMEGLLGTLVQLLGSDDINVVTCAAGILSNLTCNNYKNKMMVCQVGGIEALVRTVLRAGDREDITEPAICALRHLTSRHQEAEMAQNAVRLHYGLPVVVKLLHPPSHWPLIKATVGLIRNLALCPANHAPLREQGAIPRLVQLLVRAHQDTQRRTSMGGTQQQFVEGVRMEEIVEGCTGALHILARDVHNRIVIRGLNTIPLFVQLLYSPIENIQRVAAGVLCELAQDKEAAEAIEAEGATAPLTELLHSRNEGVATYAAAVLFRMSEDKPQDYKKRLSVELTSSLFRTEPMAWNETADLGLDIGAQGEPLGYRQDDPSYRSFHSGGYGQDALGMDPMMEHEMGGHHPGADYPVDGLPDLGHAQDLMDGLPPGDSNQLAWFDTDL
Put plainly: Competition fluorescence polarization assay (Axin site probe). In kind it is binding. As to conditions: competition fluorescence polarization, Table 2; read-out: in vitro FP EC50. In a few lines:
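Competition FP: 15 nM full-length β-catenin pre-incubated 5 min with 20 nM FITC-labelled stapled Axin-site peptide, then titrated peptide added (3-fold series from 5 μM) for 15 min in the dark. Buffer 50 mM Tris pH 8.0, 250 mM NaCl, 2% glycerol, 0.5 mM EDTA; duplicate reads.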
Consider `CC[C@H](C)[C@@H]1NC(=O)[C@H](Cc2ccccn2)NC(=O)[C@H](C)NC(=O)[C@H](CC(=O)O)NC(=O)[C@H](CC(C)C)NC(=O)[C@H]([C@@H](C)CC)NC(=O)[C@](C)(NC(=O)[C@H](C)NC(C)=O)CCCCCCC=CCOC(=O)N2CC[C@@](C(=O)N[C@@H](CC3CC3)C(=O)N[C@H](C(=O)N[C@@H](Cc3c[nH]c4ccccc34)C(N)=O)C(C)C)(C2)NC1=O` (single isomer, unassigned) [FP0574c Isomer 1, Ac-A-R8-I-L-D-A-2pyr-I-MB-cpa-V-W-NH2], for which the concentration giving a half-maximal response (EC50) (commonly the concentration giving half of the maximal effect) was above 5 µM.
As for `CC[C@H](C)[C@@H]1NC(=O)[C@H](Cc2ccccn2)NC(=O)[C@H](C)NC(=O)[C@H](CC(=O)O)NC(=O)[C@H](CC(C)C)NC(=O)[C@H]([C@@H](C)CC)NC(=O)[C@](C)(NC(=O)[C@H](C)NC(C)=O)CCCCCCC=CCOC(=O)N2CC[C@@](C(=O)N[C@@H](CC3CC3)C(=O)N[C@H](C(=O)N[C@@H](Cc3c[nH]c4ccccc34)C(N)=O)C(C)C)(C2)NC1=O` (single isomer, unassigned) [FP0574c Isomer 2, Ac-A-R8-I-L-D-A-2pyr-I-MB-cpa-V-W-NH2], the EC50 was above 5 µM.
With `CC[C@H](C)[C@@H]1NC(=O)[C@H](Cc2ccccn2)NC(=O)[C@H](C)NC(=O)[C@H](CC(=O)O)NC(=O)[C@H](CC(C)C)NC(=O)[C@H]([C@@H](C)CC)NC(=O)[C@](C)(NC(=O)[C@H](C)NC(C)=O)CCCCCCC=CCOC(=O)N2CC[C@@](C(=O)N[C@@H](Cc3ccc(OC)cc3)C(=O)N[C@H](C(=O)N[C@@H](Cc3c[nH]c4ccccc34)C(N)=O)C(C)C)(C2)NC1=O` (single isomer, unassigned) [FP0575c Isomer 1, Ac-A-R8-I-L-D-A-2pyr-I-MB-MeY-V-W-NH2] the figure was above 5 µM.
With `CC[C@H](C)[C@@H]1NC(=O)[C@H](Cc2ccccn2)NC(=O)[C@H](C)NC(=O)[C@H](CC(=O)O)NC(=O)[C@H](CC(C)C)NC(=O)[C@H]([C@@H](C)CC)NC(=O)[C@](C)(NC(=O)[C@H](C)NC(C)=O)CCCCCCC=CCOC(=O)N2CC[C@@](C(=O)N[C@@H](Cc3ccc(OC)cc3)C(=O)N[C@H](C(=O)N[C@@H](Cc3c[nH]c4ccccc34)C(N)=O)C(C)C)(C2)NC1=O` (single isomer, unassigned) [FP0575c Isomer 2, Ac-A-R8-I-L-D-A-2pyr-I-MB-MeY-V-W-NH2] the figure was above 5 µM; with `CC[C@H](C)[C@@H]1NC(=O)[C@H](Cc2ccccn2)NC(=O)[C@H](C)NC(=O)[C@H](CC(=O)O)NC(=O)[C@H](CC(C)C)NC(=O)[C@H]([C@@H](C)CC)NC(=O)[C@](C)(NC(=O)[C@H](C)NC(C)=O)CCCCCCC=CCOC(=O)N2CC[C@@](C(=O)N[C@@H](Cc3ccc(F)cc3)C(=O)N[C@H](C(=O)N[C@@H](Cc3c[nH]c4ccccc34)C(N)=O)C(C)C)(C2)NC1=O` (single isomer, unassigned) [FP0576c Isomer 1, Ac-A-R8-I-L-D-A-2pyr-I-MB-4FF-V-W-NH2], above 5 µM.
Next, `CC[C@H](C)[C@@H]1NC(=O)[C@H](Cc2ccccn2)NC(=O)[C@H](C)NC(=O)[C@H](CC(=O)O)NC(=O)[C@H](CC(C)C)NC(=O)[C@H]([C@@H](C)CC)NC(=O)[C@](C)(NC(=O)[C@H](C)NC(C)=O)CCCCCCC=CCOC(=O)N2CC[C@@](C(=O)N[C@@H](Cc3ccc(F)cc3)C(=O)N[C@H](C(=O)N[C@@H](Cc3c[nH]c4ccccc34)C(N)=O)C(C)C)(C2)NC1=O` (single isomer, unassigned) [FP0576c Isomer 2, Ac-A-R8-I-L-D-A-2pyr-I-MB-4FF-V-W-NH2]: above 5 µM; `CC[C@H](C)[C@@H]1NC(=O)[C@H](Cc2ccccn2)NC(=O)[C@H](C)NC(=O)[C@H](CC(=O)O)NC(=O)[C@H](CC(C)C)NC(=O)[C@H]([C@@H](C)CC)NC(=O)[C@](C)(NC(=O)[C@H](C)NC(C)=O)CCCCCCC=CCOC(=O)N2CC[C@@](C(=O)N[C@@H](Cc3cccc4ccccc34)C(=O)N[C@H](C(=O)N[C@@H](Cc3c[nH]c4ccccc34)C(N)=O)C(C)C)(C2)NC1=O` (single isomer, unassigned) [FP0577c Isomer 1, Ac-A-R8-I-L-D-A-2pyr-I-MB-1NapA-V-W-NH2]: above 5 µM; `CC[C@H](C)[C@@H]1NC(=O)[C@H](Cc2ccccn2)NC(=O)[C@H](C)NC(=O)[C@H](CC(=O)O)NC(=O)[C@H](CC(C)C)NC(=O)[C@H]([C@@H](C)CC)NC(=O)[C@](C)(NC(=O)[C@H](C)NC(C)=O)CCCCCCC=CCOC(=O)N2CC[C@@](C(=O)N[C@@H](Cc3ccc(C)cc3)C(=O)N[C@H](C(=O)N[C@@H](Cc3c[nH]c4ccccc34)C(N)=O)C(C)C)(C2)NC1=O` (single isomer, unassigned) [FP0578c Isomer 1, Ac-A-R8-I-L-D-A-2pyr-I-MB-4MeF-V-W-NH2]: above 5 µM.
Consider `CC[C@H](C)[C@@H]1NC(=O)[C@H](Cc2ccccn2)NC(=O)[C@H](C)NC(=O)[C@H](CC(=O)O)NC(=O)[C@H](CC(C)C)NC(=O)[C@H]([C@@H](C)CC)NC(=O)[C@](C)(NC(=O)[C@H](C)NC(C)=O)CCCCCCC=CCOC(=O)N2CC[C@@](C(=O)N[C@@H](Cc3ccc(C)cc3)C(=O)N[C@H](C(=O)N[C@@H](Cc3c[nH]c4ccccc34)C(N)=O)C(C)C)(C2)NC1=O` (single isomer, unassigned) [FP0578c Isomer 2, Ac-A-R8-I-L-D-A-2pyr-I-MB-4MeF-V-W-NH2], for which the EC50 is above 5 µM.
For the compound `CC[C@H](C)[C@@H]1NC(=O)C2(NC(=O)[C@H](CCC(N)=O)NC(=O)[C@@H]3CCCN3C(C)=O)CN(C2)C(=O)OCC=CCC[C@](C)(C(=O)N[C@@H](Cc2c[nH]cn2)C(=O)N[C@H](C(=O)N[C@@H](CCCNC(=N)N)C(=O)N[C@@H](CCCNC(=N)N)C(=O)N[C@H](C(=O)N[C@@H](Cc2c[nH]c3ccccc23)C(=O)N[C@@H](CCCNC(=N)N)C(N)=O)C(C)C)C(C)C)NC(=O)[C@H](CC(=O)O)NC(=O)[C@H](CC(C)C)NC1=O` (single isomer, unassigned) [FP0721c, Ac-P-Q-MA-I-L-D-R4-H-V-R-R-V-W-R-NH2], the EC50 was 0.5 to 5 µM.
With `CC[C@H](C)[C@@H]1NC(=O)C2(NC(=O)[C@H](CCC(N)=O)NC(=O)[C@@H]3CCCN3C(C)=O)CN(C2)C(=O)OCC=CCCC[C@](C)(C(=O)N[C@@H](Cc2c[nH]cn2)C(=O)N[C@H](C(=O)N[C@@H](CCCNC(=N)N)C(=O)N[C@@H](CCCNC(=N)N)C(=O)N[C@H](C(=O)N[C@@H](Cc2c[nH]c3ccccc23)C(=O)N[C@@H](CCCNC(=N)N)C(N)=O)C(C)C)C(C)C)NC(=O)[C@H](CC(=O)O)NC(=O)[C@H](CC(C)C)NC1=O` (single isomer, unassigned) [FP0723c, Ac-P-Q-MA-I-L-D-R5-H-V-R-R-V-W-R-NH2] the figure was 0.5 to 5 µM; with `CC[C@H](C)[C@@H]1NC(=O)C2(NC(=O)[C@H](CCC(N)=O)NC(=O)[C@@H]3CCCN3C(C)=O)CN(C2)C(=O)OCC=CCCC[C@@](C)(C(=O)N[C@@H](Cc2c[nH]cn2)C(=O)N[C@H](C(=O)N[C@@H](CCCNC(=N)N)C(=O)N[C@@H](CCCNC(=N)N)C(=O)N[C@H](C(=O)N[C@@H](Cc2c[nH]c3ccccc23)C(=O)N[C@@H](CCCNC(=N)N)C(N)=O)C(C)C)C(C)C)NC(=O)[C@H](CC(=O)O)NC(=O)[C@H](CC(C)C)NC1=O` (single isomer, unassigned) [FP0724c, Ac-P-Q-MA-I-L-D-S5-H-V-R-R-V-W-R-NH2], 0.5 to 5 µM; with `CC[C@H](C)[C@@H]1NC(=O)C2(NC(=O)[C@H](CCC(N)=O)NC(=O)[C@@H]3CCCN3C(C)=O)CN(CC=CCCCC[C@](C)(C(=O)N[C@@H](Cc3c[nH]cn3)C(=O)N[C@H](C(=O)N[C@@H](CCCNC(=N)N)C(=O)N[C@@H](CCCNC(=N)N)C(=O)N[C@H](C(=O)N[C@@H](Cc3c[nH]c4ccccc34)C(=O)N[C@@H](CCCNC(=N)N)C(N)=O)C(C)C)C(C)C)NC(=O)[C@H](CC(=O)O)NC(=O)[C@H](CC(C)C)NC1=O)C2` (single isomer, unassigned) [FP0725a, Ac-P-Q-MA-I-L-D-R6-H-V-R-R-V-W-R-NH2], 0.5 to 5 µM.
With `CC[C@H](C)[C@@H]1NC(=O)C2(NC(=O)[C@H](CCC(N)=O)NC(=O)[C@@H]3CCCN3C(C)=O)CN(C2)C(=O)OCC=CCCCCC[C@](C)(C(=O)N[C@@H](Cc2c[nH]cn2)C(=O)N[C@H](C(=O)N[C@@H](CCCNC(=N)N)C(=O)N[C@@H](CCCNC(=N)N)C(=O)N[C@H](C(=O)N[C@@H](Cc2c[nH]c3ccccc23)C(=O)N[C@@H](CCCNC(=N)N)C(N)=O)C(C)C)C(C)C)NC(=O)[C@H](CC(=O)O)NC(=O)[C@H](CC(C)C)NC1=O` (single isomer, unassigned) [FP0727c, Ac-P-Q-MA-I-L-D-R7-H-V-R-R-V-W-R-NH2] the figure was 0.5 to 5 µM.
